Values of other authors in US5888537A, “Vinca alkaloid vesicles with enhanced efficacy and tumor targeting properties” (priority 1997, dated 1999).
Like-named read-outs stand apart in the source and are kept apart here.

Conditions: clinical use, background

| Structure (SMILES) | side effect (listed as Vincristine) | side effect (listed as vincristine) | side effect |
| --- | --- | --- | --- |
| CC[C@]1(O)C[C@H]2CN(CCc3c([nH]c4ccccc34)[C@@](C(=O)OC)(c3cc4c(cc3OC)N(C=O)[C@H]3[C@@](O)(C(=O)OC)[C@H](OC(C)=O)[C@]5(CC)C=CCN6CC[C@]43[C@@H]65)C2)C1 [Free Vcr, vincristine] | Neurotoxicity | Alopecia and hair loss |  |
| CC[C@]1(O)C[C@@H]2CN(CCc3c([nH]c4ccccc34)[C@@](C(=O)OC)(c3cc4c(cc3OC)N(C)[C@H]3[C@@](O)(C(=O)OC)[C@H](OC(C)=O)[C@]5(CC)C=CCN6CC[C@]43[C@@H]65)C2)C1 [vinblastine] |  |  | Alopecia and hair loss |
